Experimental data taken from ChEMBL document CHEMBL3991601, “The target landscape of clinical kinase drugs” (Science, 2017).
The source made the active and inactive calls.

Assays:
Actin-related protein 2 = Actin-related protein 2 (Homo sapiens, UniProt P61160)
[1] = target: Adenylate kinase 2, mitochondrial (Homo sapiens, UniProt P54819)
[2] = target: T1, Serine/threonine-protein kinase A-Raf (Homo sapiens, UniProt P10398)
T1 sequence (P10398 whole entry): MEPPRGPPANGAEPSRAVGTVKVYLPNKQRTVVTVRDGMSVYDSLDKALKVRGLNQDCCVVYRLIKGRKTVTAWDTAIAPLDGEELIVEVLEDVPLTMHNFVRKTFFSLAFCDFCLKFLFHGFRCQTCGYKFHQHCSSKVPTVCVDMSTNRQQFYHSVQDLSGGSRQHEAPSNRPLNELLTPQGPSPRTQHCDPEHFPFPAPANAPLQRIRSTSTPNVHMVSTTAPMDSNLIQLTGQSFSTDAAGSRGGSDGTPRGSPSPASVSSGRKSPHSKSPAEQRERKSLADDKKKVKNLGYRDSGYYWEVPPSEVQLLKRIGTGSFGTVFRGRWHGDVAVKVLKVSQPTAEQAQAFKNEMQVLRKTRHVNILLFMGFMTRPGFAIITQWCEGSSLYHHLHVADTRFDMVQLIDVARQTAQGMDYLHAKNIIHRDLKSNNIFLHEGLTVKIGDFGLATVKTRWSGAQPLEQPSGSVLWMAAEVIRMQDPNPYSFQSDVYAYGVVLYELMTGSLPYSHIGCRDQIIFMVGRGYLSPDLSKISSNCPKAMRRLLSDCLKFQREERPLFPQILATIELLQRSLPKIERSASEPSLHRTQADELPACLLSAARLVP

[3] = target: Serine/threonine-protein kinase B-raf (Homo sapiens, UniProt P15056)
[4] = target: Serine/threonine-protein kinase/endoribonuclease IRE1 (Homo sapiens, UniProt O75460)
[5] = target: Inosine-5'-monophosphate dehydrogenase 2 (Homo sapiens, UniProt P12268)
[6] = target: T2, Dual specificity mitogen-activated protein kinase kinase 6 (Homo sapiens, UniProt P52564)
T2 sequence (P52564 whole entry): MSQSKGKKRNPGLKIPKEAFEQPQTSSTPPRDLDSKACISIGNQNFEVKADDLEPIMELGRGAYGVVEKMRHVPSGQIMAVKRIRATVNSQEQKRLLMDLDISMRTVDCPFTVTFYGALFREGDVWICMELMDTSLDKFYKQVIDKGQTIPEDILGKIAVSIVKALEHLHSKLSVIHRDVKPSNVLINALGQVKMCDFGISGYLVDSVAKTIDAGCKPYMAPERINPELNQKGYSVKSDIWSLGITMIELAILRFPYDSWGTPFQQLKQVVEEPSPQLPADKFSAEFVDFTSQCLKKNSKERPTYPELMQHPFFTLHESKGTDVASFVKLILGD

[7] = target: T3, Mitogen-activated protein kinase kinase kinase kinase 2 (Homo sapiens, UniProt Q12851)
T3 sequence (Q12851 whole entry): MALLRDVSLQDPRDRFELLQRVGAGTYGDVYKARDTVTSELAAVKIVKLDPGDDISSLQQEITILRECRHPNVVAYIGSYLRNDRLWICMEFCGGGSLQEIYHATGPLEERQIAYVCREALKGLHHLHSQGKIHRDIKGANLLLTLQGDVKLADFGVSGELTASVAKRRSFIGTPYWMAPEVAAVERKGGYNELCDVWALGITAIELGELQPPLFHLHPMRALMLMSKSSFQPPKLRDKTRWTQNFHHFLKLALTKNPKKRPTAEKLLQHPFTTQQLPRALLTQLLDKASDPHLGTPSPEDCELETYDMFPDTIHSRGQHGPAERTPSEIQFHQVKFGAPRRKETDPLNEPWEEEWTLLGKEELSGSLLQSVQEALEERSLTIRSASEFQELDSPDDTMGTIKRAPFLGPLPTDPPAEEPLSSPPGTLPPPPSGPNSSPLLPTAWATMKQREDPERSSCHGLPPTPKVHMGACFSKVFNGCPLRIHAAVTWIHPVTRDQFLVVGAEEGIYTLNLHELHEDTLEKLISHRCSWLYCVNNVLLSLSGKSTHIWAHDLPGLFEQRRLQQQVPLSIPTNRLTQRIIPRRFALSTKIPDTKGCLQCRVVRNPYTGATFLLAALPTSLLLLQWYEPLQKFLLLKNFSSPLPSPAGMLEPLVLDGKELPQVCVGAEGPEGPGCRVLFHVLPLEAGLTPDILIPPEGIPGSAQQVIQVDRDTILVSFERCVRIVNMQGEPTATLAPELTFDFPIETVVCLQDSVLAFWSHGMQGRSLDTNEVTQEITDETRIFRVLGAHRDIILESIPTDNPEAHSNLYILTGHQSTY

[8] = target: Mitogen-activated protein kinase 11 (Homo sapiens, UniProt Q15759)
[9] = target: Protein kinase C beta type (Homo sapiens, UniProt P05771)
[10] = target: Ribosomal protein S6 kinase beta-1 (Homo sapiens, UniProt P23443)
[11] = target: T4, Uncharacterized protein FLJ45252 (Homo sapiens, UniProt Q6ZSR9); conditions: read-out: Kd apparent; k-562, colo 205, sk-n-be(2) and mv-4-11
T4 sequence (Q6ZSR9 whole entry): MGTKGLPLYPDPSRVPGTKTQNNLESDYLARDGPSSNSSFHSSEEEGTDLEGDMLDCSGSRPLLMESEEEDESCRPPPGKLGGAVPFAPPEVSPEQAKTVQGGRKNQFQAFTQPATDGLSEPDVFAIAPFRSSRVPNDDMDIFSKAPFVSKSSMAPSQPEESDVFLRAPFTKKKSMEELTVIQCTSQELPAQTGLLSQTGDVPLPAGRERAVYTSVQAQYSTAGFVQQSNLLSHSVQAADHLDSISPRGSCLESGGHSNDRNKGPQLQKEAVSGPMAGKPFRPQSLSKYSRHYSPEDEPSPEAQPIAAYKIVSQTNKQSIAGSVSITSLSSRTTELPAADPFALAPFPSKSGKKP

[12] = target: cAMP-dependent protein kinase catalytic subunit gamma (Homo sapiens, UniProt P22612)
Further: in the data inactive means no Kd found up to 30 µM.

Ribosomal protein S6 kinase beta-1, sequence (P23443 whole entry): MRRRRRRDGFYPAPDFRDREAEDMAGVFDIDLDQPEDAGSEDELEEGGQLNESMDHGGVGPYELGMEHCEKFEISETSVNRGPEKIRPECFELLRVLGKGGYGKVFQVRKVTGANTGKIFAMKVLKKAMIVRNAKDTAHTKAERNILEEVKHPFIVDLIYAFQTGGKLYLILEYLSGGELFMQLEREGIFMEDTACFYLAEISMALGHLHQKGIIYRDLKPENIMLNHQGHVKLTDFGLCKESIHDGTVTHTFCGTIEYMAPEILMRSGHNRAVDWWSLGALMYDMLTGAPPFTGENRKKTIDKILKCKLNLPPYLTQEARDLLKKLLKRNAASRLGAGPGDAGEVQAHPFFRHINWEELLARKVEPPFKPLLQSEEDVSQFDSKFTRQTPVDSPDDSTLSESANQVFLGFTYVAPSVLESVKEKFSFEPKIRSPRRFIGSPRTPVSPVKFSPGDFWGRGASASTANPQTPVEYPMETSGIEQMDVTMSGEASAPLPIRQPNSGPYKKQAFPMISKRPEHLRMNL
Serine/threonine-protein kinase B-raf, sequence (P15056 whole entry): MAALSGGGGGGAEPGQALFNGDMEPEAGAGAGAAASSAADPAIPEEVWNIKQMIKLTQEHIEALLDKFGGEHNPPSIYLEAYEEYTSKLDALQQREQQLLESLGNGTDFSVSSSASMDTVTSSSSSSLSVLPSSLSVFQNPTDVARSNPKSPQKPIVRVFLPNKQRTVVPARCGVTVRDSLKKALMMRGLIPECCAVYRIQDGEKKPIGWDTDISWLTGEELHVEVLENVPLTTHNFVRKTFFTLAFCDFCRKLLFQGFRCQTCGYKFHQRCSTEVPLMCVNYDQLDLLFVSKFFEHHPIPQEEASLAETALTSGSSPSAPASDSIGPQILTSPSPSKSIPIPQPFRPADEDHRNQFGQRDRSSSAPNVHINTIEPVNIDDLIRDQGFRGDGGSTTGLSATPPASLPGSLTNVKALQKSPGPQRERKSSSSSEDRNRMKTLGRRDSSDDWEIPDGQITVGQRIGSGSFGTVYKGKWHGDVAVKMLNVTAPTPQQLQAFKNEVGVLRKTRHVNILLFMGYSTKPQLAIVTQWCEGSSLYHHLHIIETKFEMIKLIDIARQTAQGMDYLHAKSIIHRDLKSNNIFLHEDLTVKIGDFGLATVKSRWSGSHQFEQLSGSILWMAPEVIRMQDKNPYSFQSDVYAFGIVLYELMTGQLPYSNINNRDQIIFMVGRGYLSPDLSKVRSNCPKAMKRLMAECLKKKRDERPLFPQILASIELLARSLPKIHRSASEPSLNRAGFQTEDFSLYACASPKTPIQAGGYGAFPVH
Mitogen-activated protein kinase 11, sequence (Q15759 whole entry): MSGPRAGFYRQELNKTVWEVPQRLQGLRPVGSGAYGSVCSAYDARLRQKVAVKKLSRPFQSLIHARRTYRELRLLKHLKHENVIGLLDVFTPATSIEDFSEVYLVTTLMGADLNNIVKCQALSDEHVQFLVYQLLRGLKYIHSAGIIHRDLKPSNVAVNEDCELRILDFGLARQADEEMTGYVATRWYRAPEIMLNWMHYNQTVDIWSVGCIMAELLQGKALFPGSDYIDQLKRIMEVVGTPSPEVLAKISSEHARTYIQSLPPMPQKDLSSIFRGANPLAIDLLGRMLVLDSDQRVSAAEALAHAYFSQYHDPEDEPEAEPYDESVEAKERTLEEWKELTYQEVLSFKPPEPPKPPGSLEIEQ
Serine/threonine-protein kinase/endoribonuclease IRE1, sequence (O75460 whole entry): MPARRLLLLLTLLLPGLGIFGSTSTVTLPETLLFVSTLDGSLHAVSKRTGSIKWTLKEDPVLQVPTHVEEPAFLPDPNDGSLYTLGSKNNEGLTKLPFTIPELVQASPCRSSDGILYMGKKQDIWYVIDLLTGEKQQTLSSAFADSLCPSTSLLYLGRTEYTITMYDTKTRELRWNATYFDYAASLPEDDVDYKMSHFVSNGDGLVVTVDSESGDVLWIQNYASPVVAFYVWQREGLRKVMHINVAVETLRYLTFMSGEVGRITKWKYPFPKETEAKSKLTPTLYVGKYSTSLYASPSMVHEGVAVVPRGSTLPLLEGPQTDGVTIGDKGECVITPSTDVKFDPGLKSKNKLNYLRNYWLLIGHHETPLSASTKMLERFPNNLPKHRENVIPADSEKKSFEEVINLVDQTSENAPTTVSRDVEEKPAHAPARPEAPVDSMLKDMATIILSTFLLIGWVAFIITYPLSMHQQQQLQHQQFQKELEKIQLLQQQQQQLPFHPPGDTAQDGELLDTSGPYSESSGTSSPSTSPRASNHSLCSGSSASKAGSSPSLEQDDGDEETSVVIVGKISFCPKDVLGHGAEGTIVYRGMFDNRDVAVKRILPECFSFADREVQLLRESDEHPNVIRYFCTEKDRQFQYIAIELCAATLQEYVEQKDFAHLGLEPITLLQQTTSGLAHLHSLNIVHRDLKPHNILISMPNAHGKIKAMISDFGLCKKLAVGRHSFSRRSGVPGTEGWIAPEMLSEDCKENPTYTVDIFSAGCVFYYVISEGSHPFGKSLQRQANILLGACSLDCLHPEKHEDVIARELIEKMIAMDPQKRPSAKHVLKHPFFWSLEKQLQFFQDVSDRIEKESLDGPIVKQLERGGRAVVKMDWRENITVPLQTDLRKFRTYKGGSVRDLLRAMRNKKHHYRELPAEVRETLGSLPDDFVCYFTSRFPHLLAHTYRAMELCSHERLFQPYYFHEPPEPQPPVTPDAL
Protein kinase C beta type, sequence (P05771 whole entry): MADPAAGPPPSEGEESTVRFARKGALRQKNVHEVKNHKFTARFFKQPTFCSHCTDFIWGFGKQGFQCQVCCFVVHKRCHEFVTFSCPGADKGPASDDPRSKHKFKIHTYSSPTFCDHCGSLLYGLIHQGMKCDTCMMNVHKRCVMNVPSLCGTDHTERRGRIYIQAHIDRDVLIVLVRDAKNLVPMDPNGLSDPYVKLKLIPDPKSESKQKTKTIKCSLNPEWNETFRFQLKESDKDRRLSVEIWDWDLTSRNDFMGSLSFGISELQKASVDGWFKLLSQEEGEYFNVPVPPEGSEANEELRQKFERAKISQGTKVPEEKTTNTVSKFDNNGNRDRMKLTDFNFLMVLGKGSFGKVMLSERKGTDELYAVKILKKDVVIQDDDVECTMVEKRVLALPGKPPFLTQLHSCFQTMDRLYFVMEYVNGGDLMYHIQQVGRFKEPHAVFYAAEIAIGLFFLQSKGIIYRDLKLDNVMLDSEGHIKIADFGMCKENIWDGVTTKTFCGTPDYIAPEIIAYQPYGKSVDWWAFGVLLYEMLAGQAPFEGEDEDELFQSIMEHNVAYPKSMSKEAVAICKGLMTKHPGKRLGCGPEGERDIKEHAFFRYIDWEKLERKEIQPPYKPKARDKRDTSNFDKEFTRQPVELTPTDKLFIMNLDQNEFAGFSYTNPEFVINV
cAMP-dependent protein kinase catalytic subunit gamma, sequence (P22612 whole entry): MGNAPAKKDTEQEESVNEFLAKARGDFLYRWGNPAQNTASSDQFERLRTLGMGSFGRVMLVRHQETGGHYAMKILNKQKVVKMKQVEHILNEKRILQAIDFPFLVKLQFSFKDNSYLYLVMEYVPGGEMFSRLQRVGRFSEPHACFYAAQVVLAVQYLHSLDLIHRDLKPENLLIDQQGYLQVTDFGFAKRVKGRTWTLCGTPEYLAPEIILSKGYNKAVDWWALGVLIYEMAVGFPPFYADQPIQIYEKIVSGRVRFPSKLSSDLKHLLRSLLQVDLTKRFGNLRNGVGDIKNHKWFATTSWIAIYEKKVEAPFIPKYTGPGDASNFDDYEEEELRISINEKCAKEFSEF

Structure (SMILES)	Kd (Actin-related protein 2)	Kd [1]	Kd [2]	Kd [3]	Kd [4]	Kd [5]	Kd [6]	Kd [7]	Kd [8]	Kd [9]	Kd [10]	Kd [11]	Kd [12]
N#CCNC(=O)c1ccc(-c2ccnc(Nc3ccc(N4CCOCC4)cc3)n2)cc1 [MOMELOTINIB]	> 30 µM (inactive)	> 30 µM (inactive)	> 30 µM (inactive)	> 30 µM (inactive)	> 30 µM (inactive)	> 30 µM (inactive)	> 30 µM (inactive)	> 30 µM (inactive)	–	> 30 µM (inactive)	> 30 µM (inactive)	–	–
O=c1[nH]c([C@@H]2CCCN2)nc2c1oc1ccc(Cl)cc12	> 30 µM (inactive)	> 30 µM (inactive)	> 30 µM (inactive)	> 30 µM (inactive)	> 30 µM (inactive)	> 30 µM (inactive)	> 30 µM (inactive)	> 30 µM (inactive)	> 30 µM (inactive)	> 30 µM (inactive)	–	> 30 µM (inactive)	–
CC1(C)CNc2cc(NC(=O)c3cccnc3NCc3ccncc3)ccc21 [MOTESANIB]	> 30 µM (inactive)	> 30 µM (inactive)	> 30 µM (inactive)	–	–	> 30 µM (inactive)	–	–	–	> 30 µM (inactive)	–	> 30 µM (inactive)	–
Cn1cnc2c(F)c(Nc3ccc(Br)cc3Cl)c(C(=O)NOCCO)cc21 [SELUMETINIB]	> 30 µM (inactive)	> 30 µM (inactive)	> 30 µM (inactive)	–	–	> 30 µM (inactive)	–	–	–	> 30 µM (inactive)	–	0.807 µM (active)	–
O=S(=O)(c1cccc2cnccc12)N1CCCNCC1 [FASUDIL]	> 30 µM (inactive)	> 30 µM (inactive)	> 30 µM (inactive)	> 30 µM (inactive)	> 30 µM (inactive)	> 30 µM (inactive)	> 30 µM (inactive)	–	> 30 µM (inactive)	> 30 µM (inactive)	–	> 30 µM (inactive)	–
NC[C@@](O)(c1ccc(Cl)cc1)c1ccc(-c2cn[nH]c2)cc1 [AT-13148]	> 30 µM (inactive)	> 30 µM (inactive)	–	> 30 µM (inactive)	> 30 µM (inactive)	> 30 µM (inactive)	> 30 µM (inactive)	> 30 µM (inactive)	> 30 µM (inactive)	> 30 µM (inactive)	> 30 µM (inactive)	> 30 µM (inactive)	–
Cn1c(=O)c(F)c(Nc2ccc(I)cc2F)c2c(=O)n(C[C@@H](O)CO)cnc21 [TAK-733]	> 30 µM (inactive)	> 30 µM (inactive)	> 30 µM (inactive)	> 30 µM (inactive)	> 30 µM (inactive)	> 30 µM (inactive)	> 30 µM (inactive)	> 30 µM (inactive)	> 30 µM (inactive)	> 30 µM (inactive)	> 30 µM (inactive)	> 30 µM (inactive)	–
Cc1ccc(C(=O)Nc2ccc(Oc3cc4cnn(C)c4cc3-c3cn[nH]c3)c(F)c2)c(=O)n1-c1ccc(F)cc1 [MERESTINIB]	> 30 µM (inactive)	> 30 µM (inactive)	> 30 µM (inactive)	–	> 30 µM (inactive)	> 30 µM (inactive)	> 30 µM (inactive)	> 30 µM (inactive)	> 30 µM (inactive)	> 30 µM (inactive)	> 30 µM (inactive)	> 30 µM (inactive)	–

Continued, values first:

Kd (Actin-related protein 2)	Kd [1]	Kd [2]	Kd [3]	Kd [4]	Kd [5]	Kd [6]	Kd [7]	Kd [8]	Kd [9]	Kd [10]	Kd [11]	Kd [12]	Structure (SMILES)
> 30 µM (inactive)	> 30 µM (inactive)	> 30 µM (inactive)	> 30 µM (inactive)	> 30 µM (inactive)	> 30 µM (inactive)	> 30 µM (inactive)	> 30 µM (inactive)	> 30 µM (inactive)	> 30 µM (inactive)	> 30 µM (inactive)	> 30 µM (inactive)	–	O=C(Nc1ccc(OC(F)(F)F)cc1)c1sccc1NCc1ccnc2ccccc12 [OSI-930]
> 30 µM (inactive)	> 30 µM (inactive)	> 30 µM (inactive)	–	–	> 30 µM (inactive)	–	–	–	> 30 µM (inactive)	–	–	–	COc1cc2c(Oc3ccc4[nH]c(C)cc4c3F)ncnc2cc1OCCCN1CCCC1 [CEDIRANIB]
> 30 µM (inactive)	> 30 µM (inactive)	> 30 µM (inactive)	–	–	–	–	–	–	> 30 µM (inactive)	–	> 30 µM (inactive)	> 30 µM (inactive)	COc1cc2c(N3CCN(C(=O)Nc4ccc(OC(C)C)cc4)CC3)ncnc2cc1OCCCN1CCCCC1 [TANDUTINIB]
> 30 µM (inactive)	> 30 µM (inactive)	> 30 µM (inactive)	> 30 µM (inactive)	> 30 µM (inactive)	> 30 µM (inactive)	> 30 µM (inactive)	> 30 µM (inactive)	> 30 µM (inactive)	> 30 µM (inactive)	> 30 µM (inactive)	> 30 µM (inactive)	–	S=C(NCc1ccc2c(c1)OCO2)N1CCN(c2ncnc3c2oc2ccccc23)CC1 [AMUVATINIB]
> 30 µM (inactive)	> 30 µM (inactive)	> 30 µM (inactive)	> 30 µM (inactive)	> 30 µM (inactive)	> 30 µM (inactive)	> 30 µM (inactive)	> 30 µM (inactive)	> 30 µM (inactive)	> 30 µM (inactive)	> 30 µM (inactive)	> 30 µM (inactive)	–	COc1cc2ncnc(Nc3ccc(F)c(Cl)c3)c2cc1NC(=O)/C=C/CN1CCCCC1 [DACOMITINIB ANHYDROUS]
> 30 µM (inactive)	> 30 µM (inactive)	> 30 µM (inactive)	> 30 µM (inactive)	> 30 µM (inactive)	> 30 µM (inactive)	> 30 µM (inactive)	> 30 µM (inactive)	> 30 µM (inactive)	> 30 µM (inactive)	> 30 µM (inactive)	> 30 µM (inactive)	–	C#Cc1cccc(Nc2ncnc3cc4c(cc23)OCCOCCOCCO4)c1 [ICOTINIB]
> 30 µM (inactive)	> 30 µM (inactive)	> 30 µM (inactive)	> 30 µM (inactive)	> 30 µM (inactive)	> 30 µM (inactive)	> 30 µM (inactive)	> 30 µM (inactive)	> 30 µM (inactive)	> 30 µM (inactive)	> 30 µM (inactive)	> 30 µM (inactive)	–	CNC(=O)c1cccc(-c2ccc3c(N4CCOC[C@@H]4C)nc(N4CCOC[C@@H]4C)nc3n2)c1 [VISTUSERTIB]
